Source: patent publication US11897862B2 (Gilead Sciences, Inc., priority 2022, dated 2024)
Read-outs that look alike come from different tables or passages of the source. One block for each compound: values may come before it.

Legend:
Assay type in all cases: cell-based
IKZF2 [1] = target: T1, IKZF2 (Homo sapiens, UniProt Q96SW2+Q9UKS7); assay: Human whole blood IKZF2 degradation (flow cytometry, CD4/CD25/Foxp3+ Treg cells); design: endogenous in cells; conditions: for DC50: read-out: IKZF2 EC50
Procedure, shortened: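 Fresh healthy-donor human whole blood stimulated with CD3/CD28 activator and serially diluted compound for 24 hrs at 37° C. IKZF2 MFI in CD4/CD25/Foxp3+ Tregs (IKZF1 MFI in CD4+ T cells) measured by flow cytometry after RBC lysis, fixation, permeabilization. EC50 and Dmax versus DMSO wells.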
Target sequence in this assay (Q9UKS7 whole entry): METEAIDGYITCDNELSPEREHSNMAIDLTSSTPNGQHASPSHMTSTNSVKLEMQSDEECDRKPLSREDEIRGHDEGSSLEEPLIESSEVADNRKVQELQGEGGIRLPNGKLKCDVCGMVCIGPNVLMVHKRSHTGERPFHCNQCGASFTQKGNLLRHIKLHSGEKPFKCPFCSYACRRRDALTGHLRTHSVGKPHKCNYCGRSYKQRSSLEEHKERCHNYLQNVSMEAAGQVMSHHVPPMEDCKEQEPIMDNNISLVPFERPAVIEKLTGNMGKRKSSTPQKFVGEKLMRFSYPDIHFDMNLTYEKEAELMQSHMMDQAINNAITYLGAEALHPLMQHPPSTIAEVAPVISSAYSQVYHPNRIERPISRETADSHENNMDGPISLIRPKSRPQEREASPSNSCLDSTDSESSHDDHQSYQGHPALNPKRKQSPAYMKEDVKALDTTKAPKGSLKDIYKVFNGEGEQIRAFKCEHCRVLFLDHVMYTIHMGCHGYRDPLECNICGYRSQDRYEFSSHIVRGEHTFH
Target sequence in this assay (Q96SW2 whole entry): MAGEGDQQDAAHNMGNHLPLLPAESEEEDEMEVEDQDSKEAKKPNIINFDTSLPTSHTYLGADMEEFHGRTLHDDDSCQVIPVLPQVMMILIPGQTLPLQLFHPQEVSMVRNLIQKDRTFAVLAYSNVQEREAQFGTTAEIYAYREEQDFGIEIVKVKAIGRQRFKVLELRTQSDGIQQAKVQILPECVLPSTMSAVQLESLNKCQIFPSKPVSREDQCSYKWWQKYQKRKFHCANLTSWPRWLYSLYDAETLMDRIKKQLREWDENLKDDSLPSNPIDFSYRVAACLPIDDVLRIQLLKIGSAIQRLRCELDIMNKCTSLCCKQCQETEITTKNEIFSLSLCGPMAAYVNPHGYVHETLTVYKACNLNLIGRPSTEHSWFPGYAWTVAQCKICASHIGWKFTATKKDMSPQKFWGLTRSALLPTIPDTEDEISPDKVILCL
Target sequence in this assay (Q16531 whole entry partner): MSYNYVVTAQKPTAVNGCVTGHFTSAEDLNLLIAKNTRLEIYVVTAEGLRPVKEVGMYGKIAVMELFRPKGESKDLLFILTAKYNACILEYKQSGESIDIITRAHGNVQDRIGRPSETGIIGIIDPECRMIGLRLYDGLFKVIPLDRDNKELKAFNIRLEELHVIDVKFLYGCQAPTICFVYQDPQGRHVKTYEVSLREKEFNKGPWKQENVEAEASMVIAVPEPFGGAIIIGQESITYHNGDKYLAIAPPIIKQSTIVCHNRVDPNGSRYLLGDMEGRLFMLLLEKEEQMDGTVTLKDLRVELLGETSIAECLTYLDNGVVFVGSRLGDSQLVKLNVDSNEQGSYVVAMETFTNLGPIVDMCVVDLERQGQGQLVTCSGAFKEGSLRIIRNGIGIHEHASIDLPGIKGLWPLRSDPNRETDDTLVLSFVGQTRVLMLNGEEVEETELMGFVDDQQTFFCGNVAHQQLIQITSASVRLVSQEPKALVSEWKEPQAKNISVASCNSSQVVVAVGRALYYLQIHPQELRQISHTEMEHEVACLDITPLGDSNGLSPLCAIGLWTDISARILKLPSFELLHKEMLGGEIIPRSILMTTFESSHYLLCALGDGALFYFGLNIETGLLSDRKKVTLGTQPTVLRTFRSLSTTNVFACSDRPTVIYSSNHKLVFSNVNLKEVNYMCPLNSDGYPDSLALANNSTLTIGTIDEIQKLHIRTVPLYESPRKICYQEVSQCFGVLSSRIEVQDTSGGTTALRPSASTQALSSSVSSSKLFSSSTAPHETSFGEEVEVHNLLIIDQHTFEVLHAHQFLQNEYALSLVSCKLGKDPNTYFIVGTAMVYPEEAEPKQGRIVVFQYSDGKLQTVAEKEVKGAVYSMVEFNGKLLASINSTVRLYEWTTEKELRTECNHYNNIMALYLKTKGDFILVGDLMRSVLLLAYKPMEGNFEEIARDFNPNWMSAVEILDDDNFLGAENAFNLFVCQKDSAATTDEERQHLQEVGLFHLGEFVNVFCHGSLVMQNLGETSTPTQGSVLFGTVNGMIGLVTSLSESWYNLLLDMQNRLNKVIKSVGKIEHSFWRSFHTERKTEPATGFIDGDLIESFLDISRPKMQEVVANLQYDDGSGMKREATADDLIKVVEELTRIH

IKZF2 [2] = target: T1, IKZF2; assay: Jurkat IKZF2 degradation (flow cytometry); design: endogenous in cells; conditions: Jurkat cells, overnight incubation; for DC50: flow cytometry, normalized to DMSO control, read-out: IKZF2 Degradation EC50; for Dmax: maximum degradation at the highest concentration tested
Protocol: (§1) Jurkat cell line (ATCC, Clone E6-1), highly expresses IKZF2 and lends it an appropriate system to screen degradation along with a functional readout. Jurkat cells were grown to 80% confluency in TC medium (RPMI containing glutamax, 10% FBS, 1% NEAA, and 1% Pen/Strep Glutamin in tissue culture flasks.
(§2) The cells were spun down at 400 g for 5 mins and counted. 100 K cells per well were added to a 96-well plate. The compounds were introduced starting at 10 μM and dilutions were made 1:10 for each compound. 100 μL of compound was added to each well for a 12-point titration. The cells were incubated at 37° C. with 5% CO2 overnight.
Cells were stained with appropriate surface and intracellular antibodies and acquired by flow cytometry and analysed for degradation. […]
Target sequence in this assay (Q9UKS7 whole entry): as the sequence (Q9UKS7 whole entry) above
Target sequence in this assay (Q96SW2 whole entry): as the sequence (Q96SW2 whole entry) above
Target sequence in this assay (Q16531 whole entry partner): as the sequence (Q16531 whole entry partner) above

IKZF2 [3] = target: T1, IKZF2; assay: HEK293 HiBiT in vitro degradation of IKZF2; design: expressed in transfected cells; conditions: for DC50 / IKZF2 Dmax: HEK293 HiBiT; for DC50: 18-24 hr incubation, normalized to DMSO control, read-out: IKZF2 EC50; for IKZF2 Dmax / Dmax: maximum degradation at the highest concentration tested; for Dmax: HEK293, HEK293 HiBiT
Procedure, shortened: (§3)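 Degradation was scored as loss of HiBiT signal from C-terminally tagged IKZF1, IKZF2 or SALL4 in doxycycline-induced Flp-In T-REx HEK293 cells after overnight (18-24 h) compound treatment. EC50 and Dmax were derived from the luminescence.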
Target sequence in this assay (Q9UKS7 1-500 isoform Q9UKS7-2): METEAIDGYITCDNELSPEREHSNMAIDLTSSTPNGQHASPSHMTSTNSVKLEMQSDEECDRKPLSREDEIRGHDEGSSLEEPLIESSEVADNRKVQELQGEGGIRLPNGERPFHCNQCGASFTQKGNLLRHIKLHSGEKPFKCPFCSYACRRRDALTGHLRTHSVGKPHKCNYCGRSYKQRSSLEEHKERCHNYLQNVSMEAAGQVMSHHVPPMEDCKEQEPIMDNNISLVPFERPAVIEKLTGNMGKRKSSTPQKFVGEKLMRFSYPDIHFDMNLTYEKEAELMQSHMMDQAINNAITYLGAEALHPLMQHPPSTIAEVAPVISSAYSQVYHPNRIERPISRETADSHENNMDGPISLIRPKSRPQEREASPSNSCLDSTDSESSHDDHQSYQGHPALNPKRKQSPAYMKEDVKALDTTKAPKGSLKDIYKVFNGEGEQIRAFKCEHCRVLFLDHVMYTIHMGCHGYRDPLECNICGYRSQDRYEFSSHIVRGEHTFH
Target sequence in this assay (Q96SW2 whole entry): as the sequence (Q96SW2 whole entry) above
Target sequence in this assay (Q16531 whole entry partner): as the sequence (Q16531 whole entry partner) above

SALL4 = target: T2, SALL4 (Homo sapiens, UniProt Q96SW2+Q9UJQ4); assay: HEK293 HiBiT in vitro degradation of SALL4; conditions: for DC50: 18-24 hr incubation, normalized to DMSO control, read-out: SALL4 EC50
T2 construct: expressed in transfected cells
Procedure, shortened: as §3

IKZF1 = target: T3, IKZF1 (Homo sapiens, UniProt Q13422+Q96SW2); assay: HEK293 HiBiT in vitro degradation of IKZF1; conditions: for Dmax: HEK293, HEK293 HiBiT, maximum degradation at the highest concentration tested; for DC50: HEK293 HiBiT, 18-24 hr incubation, normalized to DMSO control, read-out: IKZF1 EC50
T3 construct: expressed in transfected cells
Procedure, shortened: as §3

IKZF2 [4] = target: T1, IKZF2; assay: HEK293 IKZF2 degradation kinetics (HiBiT, timepoints 1-24 h); design: expressed in transfected cells; conditions: for kinact: HEK293, IKZF2, timepoints 1, 2, 3, 4.5 and 24 hour, read-out: Maximum degradation rate Kinact (converted)
Protocol: The assay technology and principles for evaluating IKZF2 degradation kinetics in HEK293 cells was identical to the HEK293 degradation assay as described above. Additional details are briefly described below.
On Day 1, Cells were grown and induced the same as described above. On Days 2 and 3, compounds for testing were dispensed via ECHO and cells were lifted and plated into compound-spotted assay plates as above. Plates were returned to the 37° C. incubator until addition of Nano-Glo lytic reagent at 1, 2, 3, 4.5, and 24 hour timepoints. At these timepoints, plates were read on Envision reader as above.
All raw data was normalized to DMSO control (final concentration: 0.5%) wells as POC and plotted out as a function of time to generate the degradation rate constant (K) value. The maximum degradation rate (Kinact) was determined by plotting the K value as a function of concentration for each compound tested. Kinact values are shown in Table 25 and the degradation rate plots as well as timecourse of degradation are shown for select compounds in FIG. 1A, FIG. 1B, FIG. 2A and FIG. 2B.
Target sequence in this assay (Q9UKS7 1-500 isoform Q9UKS7-2): as the sequence (Q9UKS7 1-500 isoform Q9UKS7-2) above
Target sequence in this assay (Q96SW2 whole entry): as the sequence (Q96SW2 whole entry) above
Target sequence in this assay (Q16531 whole entry partner): as the sequence (Q16531 whole entry partner) above

[5] = system: IL-2 production in Jurkat cells; assay: Jurkat IL-2 functional assay (ELISA of supernatants); conditions: Homo sapiens; for maximal fold induction: Jurkat, top of the curve fit; for EC50: overnight incubation
Protocol: as §1, §2
The following day, supernatants were collected for a functional readout using ELISA. The supernatants were diluted 1:2 and added to appropriate Human IL-2 plates for IL-2 functional readout.
The top of the curve fit for each compound is reported as the IL-2 ‘fold increase over DMSO control.’

[6] = 24 hrs incubation, IKZF2 MFI in CD4/CD25/Foxp3+ Treg cells, flow cytometry
[7] = ELISA of supernatants, read-out: IL-2 Production Fold increase over DMSO control
[8] = read-out: increase in IL-2 production relative to DMSO control

T3 sequence (Q13422 whole entry): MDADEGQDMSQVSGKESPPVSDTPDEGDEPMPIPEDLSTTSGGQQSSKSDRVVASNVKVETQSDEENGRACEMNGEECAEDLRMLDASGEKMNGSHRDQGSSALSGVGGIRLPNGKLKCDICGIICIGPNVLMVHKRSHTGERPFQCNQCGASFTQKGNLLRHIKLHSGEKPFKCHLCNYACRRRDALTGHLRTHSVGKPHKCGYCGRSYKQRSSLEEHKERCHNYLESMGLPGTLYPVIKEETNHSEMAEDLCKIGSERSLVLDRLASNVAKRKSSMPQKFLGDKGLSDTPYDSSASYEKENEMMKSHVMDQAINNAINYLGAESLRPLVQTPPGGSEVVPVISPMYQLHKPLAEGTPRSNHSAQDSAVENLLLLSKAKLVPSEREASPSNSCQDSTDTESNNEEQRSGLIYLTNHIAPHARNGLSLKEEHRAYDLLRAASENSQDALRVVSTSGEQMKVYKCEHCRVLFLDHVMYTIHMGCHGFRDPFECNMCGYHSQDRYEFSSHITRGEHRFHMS
T3 sequence (Q96SW2 whole entry): as the sequence (Q96SW2 whole entry) above
T3 sequence (Q16531 whole entry partner): as the sequence (Q16531 whole entry partner) above
T2 sequence (Q9UJQ4 whole entry): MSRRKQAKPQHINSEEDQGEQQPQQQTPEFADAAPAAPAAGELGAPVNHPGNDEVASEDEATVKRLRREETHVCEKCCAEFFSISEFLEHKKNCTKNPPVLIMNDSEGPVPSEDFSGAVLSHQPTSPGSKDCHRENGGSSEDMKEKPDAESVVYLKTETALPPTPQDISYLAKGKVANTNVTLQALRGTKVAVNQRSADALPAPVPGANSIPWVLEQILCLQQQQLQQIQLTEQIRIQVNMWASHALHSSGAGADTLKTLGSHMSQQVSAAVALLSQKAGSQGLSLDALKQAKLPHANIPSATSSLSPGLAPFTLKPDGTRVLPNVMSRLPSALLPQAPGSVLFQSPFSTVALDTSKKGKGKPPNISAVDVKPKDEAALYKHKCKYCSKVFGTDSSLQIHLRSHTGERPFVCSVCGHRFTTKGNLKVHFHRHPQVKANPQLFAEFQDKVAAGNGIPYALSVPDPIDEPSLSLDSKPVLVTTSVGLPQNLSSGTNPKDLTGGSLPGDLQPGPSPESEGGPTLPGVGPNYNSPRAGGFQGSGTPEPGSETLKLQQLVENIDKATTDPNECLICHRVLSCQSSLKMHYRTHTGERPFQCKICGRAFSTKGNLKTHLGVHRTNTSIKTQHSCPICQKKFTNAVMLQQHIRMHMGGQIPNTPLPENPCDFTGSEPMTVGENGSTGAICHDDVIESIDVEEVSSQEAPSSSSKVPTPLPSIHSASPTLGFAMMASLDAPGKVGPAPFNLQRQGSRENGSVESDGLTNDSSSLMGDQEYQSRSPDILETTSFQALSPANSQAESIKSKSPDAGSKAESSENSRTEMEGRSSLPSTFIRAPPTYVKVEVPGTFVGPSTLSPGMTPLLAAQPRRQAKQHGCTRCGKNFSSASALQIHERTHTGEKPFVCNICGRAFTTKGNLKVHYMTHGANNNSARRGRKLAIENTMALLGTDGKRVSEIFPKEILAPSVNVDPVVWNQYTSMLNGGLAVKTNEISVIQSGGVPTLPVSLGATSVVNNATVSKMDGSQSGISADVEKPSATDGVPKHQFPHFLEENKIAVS
T2 sequence (Q96SW2 whole entry): as the sequence (Q96SW2 whole entry) above
T2 sequence (Q16531 whole entry partner): as the sequence (Q16531 whole entry partner) above

Structure (SMILES): O=C1CCC(N2Cc3cc(C[C@H]4CCCC[C@@H]4NC4CCC(F)(F)CC4)ccc3C2=O)C(=O)N1 (stereo partly drawn) [Example 46, 3-(5-(((1R,2S)-2-((4,4-difluorocyclohexyl)amino)cyclohexyl)methyl)-1-oxoisoindolin-2-yl)piperidine-2,6-dione]
- IKZF2 degradation potency compared with Reference Compound B-4 (IKZF2 [1]; 24 hrs): more potent
- Dmax (IKZF2 [1]; [6]): 96%
- DC50 (IKZF2 [1]; [6]): 3 nM
- DC50 (IKZF2 [2]): 2 nM
- Dmax (IKZF2 [2]): 95%
- Dmax (IKZF2 [3]): 94%
- DC50 (IKZF2 [3]): 1 nM
- DC50 (SALL4): > 10000 nM
- Dmax (IKZF1): 29%
- DC50 (IKZF1): 33 nM
- speed of IKZF2 degradation compared with Reference Compounds A-1, B-3, B-4, C-1 (IKZF2 [4]; HEK293): faster degradation of IKZF2
- kinact (IKZF2 [4]): 0.000158 s⁻¹
- maximal fold induction [5, 7]: 2.7
- maximal fold induction [5, 8]: ≥ 1.9
- EC50 ([5]; ELISA of supernatants): 3.5 nM

Structure (SMILES): CC(N[C@H]1CCCC[C@@H]1Cc1ccc2c(c1)CN(C1CCC(=O)NC1=O)C2=O)C1CCC1 (some centres unmarked) [Example 218]
- IKZF2 Dmax (IKZF2 [1]; [6]): 97%
- DC50 (IKZF2 [1]; [6]): 4 nM
- DC50 (IKZF2 [2]): 0.8 nM
- Dmax (IKZF2 [2]): 93%
- DC50 (IKZF2 [3]): 2 nM
- IKZF2 Dmax (IKZF2 [3]): 95%
- Dmax (IKZF1): 34%
- DC50 (IKZF1): 626 nM
- kinact (IKZF2 [4]): 0.000131 s⁻¹
- maximal fold induction [5, 7]: 2.2
- maximal fold induction [5, 8]: ≥ 1.9
- EC50 ([5]; ELISA of supernatants): 8 nM

Structure (SMILES): O=C1CCC(N2Cc3cc(C4CCC(Cc5ccccc5)CC4)ccc3C2=O)C(=O)N1 (centres unmarked) [Example A-1]
- Dmax (IKZF2 [1]; [6]): 82%
- Dmax (IKZF2 [2]): 61%
- Dmax (IKZF2 [3]): 82%
- Dmax (SALL4; maximum degradation at the highest concentration tested): 63%
- kinact (IKZF2 [4]): 3.89e-05 s⁻¹
- maximal fold induction [5, 7]: 1.6
- EC50 ([5]; ELISA of supernatants): 10 nM

Structure (SMILES): O=C1CCC(N2Cc3cc(O[C@H]4CCCC[C@@H]4NC4CCC(F)(F)CC4)ccc3C2=O)C(=O)N1 (some centres unmarked) [Example B-4]
- Dmax (IKZF2 [1]; [6]): 97%
- Dmax (IKZF2 [2]): 94%
- Dmax (IKZF2 [3]): 98%
- kinact (IKZF2 [4]): 0.000144 s⁻¹
- maximal fold induction [5, 7]: 1.8
- EC50 ([5]; ELISA of supernatants): 7.8 nM

Continued, in another order:

- Dmax (IKZF2 [1]; [6]): 96%
- DC50 (IKZF2 [1]; [6]): 5 nM
- DC50 (IKZF2 [2]): 1.4 nM
- Dmax (IKZF2 [2]): 90%
- DC50 (IKZF2 [3]): 4 nM
- IKZF2 Dmax (IKZF2 [3]): 98%
- DC50 (SALL4): > 10000 nM
- Dmax (IKZF1): 26%
- DC50 (IKZF1): 92 nM
- kinact (IKZF2 [4]): 9.44e-05 s⁻¹
- EC50 ([5]; ELISA of supernatants): 1.9 nM
Structure (SMILES): O=C1CCC(N2Cc3c(ccc(C[C@H]4OCCC[C@@H]4NC4CCC(C(F)F)CC4)c3F)C2=O)C(=O)N1 (single isomer, unassigned) [Example 283]
- maximal fold induction [5, 7]: 2.1
- maximal fold induction [5, 8]: ≥ 1.9

- Dmax (IKZF2 [1]; [6]): 92%
- DC50 (IKZF2 [1]; [6]): 2 nM
- DC50 (IKZF2 [2]): 0.6 nM
- Dmax (IKZF2 [2]): 96%
- Dmax (IKZF2 [3]): 95%
- DC50 (IKZF2 [3]): 1 nM
- DC50 (SALL4): > 10000 nM
- Dmax (IKZF1): 47%
- DC50 (IKZF1): 66 nM
- kinact (IKZF2 [4]): 0.000189 s⁻¹
- EC50 ([5]; ELISA of supernatants): 0.6 nM
Structure (SMILES): CC(N[C@H]1CCCC[C@@H]1Cc1ccc2c(c1F)CN(C1CCC(=O)NC1=O)C2=O)C1CCOCC1 (single isomer, unassigned) [Example 287]
- maximal fold induction [5, 7]: 2.5
- maximal fold induction [5, 8]: ≥ 1.9

- Dmax (IKZF2 [1]; [6]): 94%
- DC50 (IKZF2 [1]; [6]): 2 nM
- DC50 (IKZF2 [2]): 0.4 nM
- Dmax (IKZF2 [2]): 96%
- Dmax (IKZF2 [3]): 98%
- DC50 (IKZF2 [3]): 1 nM
- DC50 (SALL4): > 10000 nM
- Dmax (IKZF1): 62%
- DC50 (IKZF1): 22 nM
- kinact (IKZF2 [4]): 0.000175 s⁻¹
- EC50 ([5]; ELISA of supernatants): 3.4 nM
Structure (SMILES): O=C1CC[C@H](N2Cc3cc(C[C@H]4CCCC[C@@H]4NC4CCC(F)(F)CC4)ccc3C2=O)C(=O)N1 (single isomer, unassigned) [Example 328]
- maximal fold induction [5, 7]: 2.7
- maximal fold induction [5, 8]: ≥ 1.9

- Dmax (IKZF2 [1]; [6]): 93%
- DC50 (IKZF2 [1]; [6]): 1 nM
- DC50 (IKZF2 [2]): 0.05 nM
- Dmax (IKZF2 [2]): 97%
- Dmax (IKZF2 [3]): 97%
- DC50 (IKZF2 [3]): 1 nM
- Dmax (IKZF1): 68%
- DC50 (IKZF1): 28 nM
- EC50 ([5]; ELISA of supernatants): 0.2 nM
Structure (SMILES): O=C1CCC(N2Cc3c(ccc(C[C@H]4CCCC[C@@H]4NC4CCC(F)(F)CC4)c3F)C2=O)C(=O)N1 (stereo partly drawn) [Example 84, 3-(5-(((1R,2S)-2-((4,4-difluorocyclohexyl)amino)cyclohexyl)methyl)-4-fluoro-1-oxoisoindolin-2-yl)piperidine-2,6-dione]
- maximal fold induction [5, 7]: 2.6
- maximal fold induction [5, 8]: ≥ 1.9

- Dmax (IKZF2 [1]; [6]): 90%
- DC50 (IKZF2 [1]; [6]): 7 nM
- DC50 (IKZF2 [2]): 2 nM
- Dmax (IKZF2 [2]): 88%
- Dmax (IKZF2 [3]): 96%
- DC50 (IKZF2 [3]): 10 nM
- DC50 (IKZF1): > 10000 nM
- EC50 ([5]; ELISA of supernatants): 2.3 nM
Structure (SMILES): O=C1CCC(N2Cc3c(ccc(C[C@H]4OCCC[C@@H]4NC4CCC(F)(F)CC4)c3F)C2=O)C(=O)N1 (stereo partly drawn) [Example 94, 3-(5-(((2R,3S)-3-((4,4-difluorocyclohexyl)amino)tetrahydro-2H-pyran-2-yl)methyl)-4-fluoro-1-oxoisoindolin-2-yl)piperidine-2,6-dione]
- maximal fold induction [5, 7]: 2.1
- maximal fold induction [5, 8]: ≥ 1.9

- DC50 (IKZF2 [2]): 0.1 nM
- Dmax (IKZF2 [2]): 90%
- Dmax (IKZF2 [3]): 97%
- DC50 (IKZF2 [3]): 5 nM
- DC50 (SALL4): > 10000 nM
- DC50 (IKZF1): > 1000 nM
- kinact (IKZF2 [4]): 0.000106 s⁻¹
- EC50 ([5]; ELISA of supernatants): 0.03 nM
Structure (SMILES): O=C1CC[C@H](N2Cc3c(ccc(C[C@H]4OCCC[C@@H]4N[C@H]4CC[C@H](F)CC4)c3F)C2=O)C(=O)N1 [Example 369]
- maximal fold induction [5, 7]: 2
- maximal fold induction [5, 8]: ≥ 1.9
